Calls of active or inactive are those of the source. The rule behind the calls is not given here.
Columns and labels:
Mus musculus [1] = test: Antiinflammatory activity in cerulein-induced CD-1 mouse assessed as reduction in pancreatic injury at 10 mg/kg, ip administered on 0.5 and 2.5 hrs post first cerulein administration measured after 6 hrs by Hematoxylin and eosin staining based analysis; type: functional, organism-based
Mus musculus [2] = test: Antiinflammatory activity in cerulein-induced CD-1 mouse assessed as reduction in lung inflammation at 10 mg/kg, ip administered on 0.5 and 2.5 hrs post first cerulein administration measured after 6 hrs by Hematoxylin and eosin staining based analysis; type: functional, organism-based
Mus musculus [3] = test: Antiinflammatory activity in cerulein-induced CD-1 mouse assessed as reduction of neutrophil numbers at 10 mg/kg, ip administered on 0.5 and 2.5 hrs post first cerulein administration measured after 6 hrs by Hematoxylin and eosin staining based analysis; type: functional, organism-based
Mus musculus [4] = test: Antiinflammatory activity in cerulein-induced CD-1 mouse assessed as reduction of cell infiltration at 10 mg/kg, ip administered on 0.5 and 2.5 hrs post first cerulein administration measured after 6 hrs by Hematoxylin and eosin staining based analysis; type: functional, organism-based
Mus musculus [5] = test: Antiinflammatory activity in cerulein-induced CD-1 mouse assessed as reduction of edema at 10 mg/kg, ip administered on 0.5 and 2.5 hrs post first cerulein administration measured after 6 hrs by Hematoxylin and eosin staining based analysis; type: functional, organism-based
[6] = biological target: T1, Prostaglandin G/H synthase 2 (Mus musculus, UniProt Q05769); test: Inhibition of COX-2 in LPS-stimulated mouse J774 cells assessed as inhibition of PGE2 production pretreated for 2 hrs followed by stimulation with LPS measured after 24 hrs by ELISA analysis; type: cell-based
T1 sequence (Q05769 whole entry): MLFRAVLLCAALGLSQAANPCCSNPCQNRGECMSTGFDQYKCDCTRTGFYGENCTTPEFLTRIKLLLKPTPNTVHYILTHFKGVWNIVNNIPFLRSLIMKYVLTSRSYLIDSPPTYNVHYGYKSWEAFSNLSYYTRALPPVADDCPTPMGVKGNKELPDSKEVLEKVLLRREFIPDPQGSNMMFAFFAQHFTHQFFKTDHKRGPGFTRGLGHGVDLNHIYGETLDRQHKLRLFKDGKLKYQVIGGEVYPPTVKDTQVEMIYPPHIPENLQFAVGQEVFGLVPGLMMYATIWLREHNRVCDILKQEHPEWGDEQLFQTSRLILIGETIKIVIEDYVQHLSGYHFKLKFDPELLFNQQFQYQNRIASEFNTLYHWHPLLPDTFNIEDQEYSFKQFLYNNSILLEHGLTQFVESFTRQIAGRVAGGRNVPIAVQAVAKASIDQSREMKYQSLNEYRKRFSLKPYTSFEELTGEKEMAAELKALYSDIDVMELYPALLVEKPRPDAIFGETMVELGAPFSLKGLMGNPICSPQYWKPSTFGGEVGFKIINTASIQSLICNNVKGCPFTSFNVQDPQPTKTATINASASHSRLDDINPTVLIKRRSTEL

Mus musculus [7] = test: Antiinflammatory activity in cerulein-induced CD-1 mouse assessed as reduction in serum AST at 10 mg/kg, ip administered on 0.5 and 2.5 hrs post first cerulein administration measured after 6 hrs by Hematoxylin and eosin staining based analysis; type: functional, organism-based
Mus musculus [8] = test: Antiinflammatory activity in cerulein-induced CD-1 mouse assessed as reduction in serum ALT at 10 mg/kg, ip administered on 0.5 and 2.5 hrs post first cerulein administration measured after 6 hrs by Hematoxylin and eosin staining based analysis; type: functional, organism-based
Mus musculus [9] = test: Antiinflammatory activity in cerulein-induced CD-1 mouse assessed as reduction in lung neutrophilia at 10 mg/kg, ip administered on 0.5 and 2.5 hrs post first cerulein administration measured after 6 hrs by Hematoxylin and eosin staining based analysis; type: functional, organism-based

IC50 [6] [µM]	SMILES	Activity (Mus musculus [1])	Activity (Mus musculus [2])	Activity (Mus musculus [3])	Activity (Mus musculus [4])	Activity (Mus musculus [5])	Activity (Mus musculus [7])	Activity (Mus musculus [8])	Activity (Mus musculus [9])
	O=C(O)CCCCCCCCCCCNC(=O)NC12CC3CC(CC(C3)C1)C2	Active							
> 10	CC(C)c1ccc(Cn2ccc3cc(NC(=O)NCC45C[C@H]6C[C@@H](C4)C[C@@H](C5)C6)ccc32)cc1		Active	Active	Active	Active	Active	Active	Active

From ChEMBL document CHEMBL5331115, “Design, Synthesis, and Pharmacological Characterization of a Potent Soluble Epoxide Hydrolase Inhibitor for the Treatment of Acute Pancreatitis” (J Med Chem, 2023)
